Measured values: PubChem BioAssay (NCI)
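Protocol summary: plate cells (96-well), add compound at 5 concentrations, incubate 48 h, interpolate endpoints linearly. Here, GI50 denotes the concentration required for 50% inhibition of growth. At the TGI there is no net growth.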

Legend:
Test in all cases: DTP human tumour cell line panel, 48 h
[1] = test system: SF-295 CNS
[2] = test system: SN12C renal
[3] = test system: HCT-15 colon
[4] = test system: SK-MEL-5 melanoma
[5] = test system: RPMI-8226 leukemia
[6] = test system: IGROV1 ovarian
[7] = test system: A549 NSCLC
[8] = test system: NCI-H226 lung
[9] = test system: HL-60(TB) leukemia
[10] = test system: CCRF-CEM leukemia
[11] = test system: PC-3 prostate
[12] = test system: NCI-H460 lung
[13] = test system: KM12 colon
[14] = test system: OVCAR-4 ovarian
[15] = test system: OVCAR-5 ovarian
[16] = test system: SK-MEL-2 melanoma
[17] = test system: HS 578T breast
[18] = test system: 786-0 renal
[19] = test system: UACC-257 melanoma
[20] = test system: A498 renal
[21] = test system: MOLT-4 leukemia
[22] = test system: CAKI-1 renal
[23] = test system: SNB-19 CNS
[24] = test system: ACHN renal
[25] = test system: DU-145 prostate
[26] = test system: SK-OV-3 ovarian
[27] = test system: M14 melanoma
[28] = test system: NCI/ADR-RES ovarian
[29] = test system: SR leukemia
[30] = test system: BT-549 breast
[31] = test system: MCF7 breast
[32] = test system: SNB-75 CNS
[33] = test system: SK-MEL-28 melanoma
[34] = test system: HCT-116 colon
[35] = test system: LOX IMVI melanoma
[36] = test system: RXF 393 renal
[37] = test system: SW-620 colon
[38] = test system: U251 CNS
[39] = test system: HCC-2998 colon
[40] = test system: COLO 205 colon
[41] = test system: NCI-H522 lung
[42] = test system: SF-268 CNS
[43] = test system: HOP-92 NSCLC
[44] = test system: HOP-62 NSCLC
[45] = test system: UO-31 renal
[46] = test system: T-47D breast
[47] = test system: OVCAR-3 ovarian
[48] = test system: MDA-MB-435
[49] = test system: SF-539 CNS
[50] = test system: MALME-3M melanoma
[51] = test system: HT29 colon
[52] = test system: OVCAR-8 ovarian
[53] = test system: MDA-MB-231 breast
[54] = test system: UACC-62 melanoma

COc1cccc(-c2ccc3c(c2)C2CCN(Cc4ccccc4)C3C2)c1 (stereo not drawn)
GI50 [1]: 4.08 µM
TGI [1]: 20.9 µM
GI50 [2]: 11.2 µM
TGI [2]: 30.3 µM
GI50 [3]: 4.86 µM
TGI [3]: 19.7 µM
GI50 [4]: 3.51 µM
TGI [4]: 14.7 µM
GI50 [5]: 4.93 µM
TGI [5]: 23.6 µM
GI50 [6]: 8.99 µM
TGI [6]: 76.6 µM
GI50 [7]: 7.72 µM
TGI [7]: 31.8 µM
GI50 [8]: 11.1 µM
TGI [8]: 30.4 µM
GI50 [9]: 5.71 µM
TGI [9]: 21 µM
GI50 [10]: 9.67 µM
TGI [10]: 56.1 µM
GI50 [11]: 6.99 µM
TGI [11]: 65.4 µM
GI50 [12]: 4.13 µM
TGI [12]: 15.7 µM
GI50 [13]: 5.14 µM
TGI [13]: 21.6 µM
GI50 [14]: 5.71 µM
TGI [14]: 58.2 µM
GI50 [15]: 11.8 µM
TGI [15]: 29 µM
GI50 [16]: 5.04 µM
TGI [16]: 18 µM
GI50 [17]: 8.64 µM
TGI [17]: 31 µM
GI50 [18]: 13.9 µM
TGI [18]: 36.1 µM
GI50 [19]: 11.2 µM
TGI [19]: 29.1 µM
GI50 [20]: 3.77 µM
TGI [20]: 17.6 µM
GI50 [21]: 7.17 µM
TGI [21]: 40.5 µM
GI50 [22]: 10.8 µM
TGI [22]: 40.1 µM
GI50 [23]: 12.9 µM
TGI [23]: 30.5 µM
GI50 [24]: 11.9 µM
TGI [24]: 38.1 µM
GI50 [25]: 16.4 µM
TGI [25]: 43.9 µM
GI50 [26]: 14.8 µM
TGI [26]: 48.8 µM
GI50 [27]: 5.78 µM
TGI [27]: 24.8 µM
GI50 [28]: 8.94 µM
TGI [28]: 32.5 µM
GI50 [29]: 3.95 µM
TGI [29]: 13.8 µM
GI50 [30]: 6.12 µM
TGI [30]: 21.1 µM
GI50 [31]: 4.34 µM
TGI [31]: 19.5 µM
GI50 [32]: 6.69 µM
TGI [32]: 27.2 µM
GI50 [33]: 13.4 µM
TGI [33]: 65.9 µM
GI50 [34]: 4.8 µM
TGI [34]: 23.6 µM
GI50 [35]: 10.2 µM
TGI [35]: 26.8 µM
GI50 [36]: 10.1 µM
TGI [36]: 24.6 µM
GI50 [37]: 4.59 µM
TGI [37]: 20.3 µM
GI50 [38]: 7.63 µM
TGI [38]: 22 µM
GI50 [39]: 13.6 µM
TGI [39]: 33.5 µM
GI50 [40]: 10 µM
TGI [40]: 27.8 µM
GI50 [41]: 4.54 µM
TGI [41]: 20.4 µM
GI50 [42]: 12.3 µM
TGI [42]: 34.4 µM
GI50 [43]: 3.72 µM
TGI [43]: 20.2 µM
GI50 [44]: 12.1 µM
TGI [44]: 35.6 µM
GI50 [45]: 6.79 µM
TGI [45]: 21.6 µM
GI50 [46]: 5.19 µM
TGI [46]: 38.5 µM
GI50 [47]: 4.49 µM
TGI [47]: 17 µM
GI50 [48]: 2.43 µM
TGI [48]: 7.29 µM
GI50 [49]: 10.3 µM
TGI [49]: 23 µM
GI50 [50]: 13.4 µM
TGI [50]: 30.4 µM
GI50 [51]: 3.24 µM
TGI [51]: 12.2 µM
GI50 [52]: 11.2 µM
TGI [52]: 32.5 µM
GI50 [53]: 5.61 µM
TGI [53]: 19 µM
GI50 [54]: 8.48 µM
TGI [54]: 22 µM
